Measured values from US9822069B2, “Urea derivative or pharmacologically acceptable salt thereof” (KYORIN PHARMACEUTICAL CO. LTD., priority 2013, dated 2017).

Columns and labels:
[1] = test system: mouse (BALB/c, male); test: Effect of lipopolysaccharide induction on neutrophilic infiltration in mouse lung; format: in vivo; conditions: neutrophil infiltration in BAL fluid, LPS-exposed BALB/c mouse, oral; for inhibition in vivo at 3 mg/kg / inhibition in vivo at 1 mg/kg: 5 h, read-out: SUPPRESSION RATIO
Protocol: Effect of Lipopolysaccharide Induction on Neutrophilic Infiltration in Mouse Lung A compound to be tested was orally administrated to a mouse (BALB/c, male), and after 30 minutes, the mouse was placed in a plastic container. Lipopolysaccharide (0.3 mg/mL) dissolved in physiological saline was aerosolized with an ultrasonic wave nebulizer (NE-U17, OMRON Corporation), and exposed to the mouse for 10 minutes. After 5 hours, the anesthetized mouse was sacrificed by exsanguination. A cannula was inserted in the respiratory tract and bronchoalveolar lavage (BAL) with 1 mL of 0.85% NaCl liquid containing 0.4% sodium citrate was carried out. This operation was repeated 3 times, to obtain a BAL fluid. The BAL fluid was centrifuged at 4° C. and ×200 g for 5 minutes, and the pellet was suspended in a physiological saline containing 0.1% BSA. The number of white blood cells was counted using Turks solution with a microscope, and the total white blood cell count was calculated. The white blood cells were fixed on a glass slide using Cytospin 3 (Thermo BioAnalysis Japan K. K.). The cells were stained with Diff-Quik (SYSMEX INTERNATIONAL REAGENTS CO., LTD.), and the number thereof was counted with a microscope, and the neutrophil ratio was calculated. The neutrophil ratio was multiplied by the total white blood cell count to calculate the total neutrophil count. An effect of the compound to be tested represents a percentage (%) of suppression ratio relative to the neutrophil count in a control.

[2] = target: T1, human FPRL1 (Homo sapiens, UniProt P25090); test: Measurement test of agonist activity on human FPRL1 (test of calcium mobilization in cell, HEK293 with human FPRL1 and Gα15 expression vectors); format: cell-based; conditions: calcium mobilization in HEK293 cells with human FPRL1 and Gα15 expression vectors
T1 construct: expressed in transfected cells; host or cells: HEK293 (JCRB9068, NIBIO), transient transfection with pCMV-script vectors using Lipofectamine 2000
T1 sequence (P25090 1-351): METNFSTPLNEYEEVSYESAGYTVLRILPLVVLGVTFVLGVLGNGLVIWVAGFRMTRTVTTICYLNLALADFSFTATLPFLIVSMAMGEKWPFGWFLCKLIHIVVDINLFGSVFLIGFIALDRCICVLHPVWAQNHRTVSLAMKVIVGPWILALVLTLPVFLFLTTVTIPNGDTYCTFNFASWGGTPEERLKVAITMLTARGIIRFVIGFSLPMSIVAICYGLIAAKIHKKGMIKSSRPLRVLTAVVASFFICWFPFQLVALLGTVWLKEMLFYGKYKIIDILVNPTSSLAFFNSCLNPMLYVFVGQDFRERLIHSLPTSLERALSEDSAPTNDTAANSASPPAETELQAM
Method in brief: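 HEK293 transiently co-transfected with human FPRL1 and Gα15, plated 24 h before assay, loaded with Fluo-4 NW dye plus probenecid. Compounds in eight 10-fold dilutions (DMSO stocks 10^−2 to 10^−9 M, then diluted 100-fold in assay buffer); calcium mobilization read on Flexstation for EC50.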

| Compound | inhibition in vivo at 3 mg/kg ([1]; dose 3 mg/kg) [%] | EC50 [2] [nM] | inhibition in vivo at 1 mg/kg [1] [%] | SUPPRESSION RATIO (%) ([1]; dose 3 mg/kg) |
| --- | --- | --- | --- | --- |
| COc1ccc([C@@H]2CNC(=O)C2NC(=O)Nc2ccc(F)cc2)cc1 (mixture of isomers) [Example 1-54, (±)-trans-1-(4-fluorophenyl)-3-[4-(4-methoxyphenyl)-2-oxopyrrolidin-3-yl]urea] | 98.6 | 0.11 | – | – |
| COc1cc(F)c([C@@H]2CN/C(=N\OCCO)[C@H]2NC(=O)Nc2ccc(F)cc2)c(F)c1 (single isomer, unassigned) [EXAMPLE 32-5, (−)-1-{(3S*,4R*,Z)-4-(2,6-difluoro-4-methoxyphenyl)-2-[(2-hydroxyethoxy)imino]pyrrolidin-3-yl}-3-(4-fluorophenyl)urea] | – | 0.03 | 99.8 | – |
| COc1ccc([C@@H]2CNC(=O)[C@H]2NC(=O)Nc2ccc(F)cc2)cc1 (single isomer, unassigned) [EXAMPLE 1-1, (−)-1-(4-Fluorophenyl)-3-[(3S*,4R*)-4-(4-methoxyphenyl)-2-oxopyrrolidin-3-yl]urea] | – | 0.09 | 95.1 | – |
| COc1cc(F)c([C@@H]2CNC(=O)[C@H]2NC(=O)Nc2ccc(C)cc2)c(F)c1 (relative stereo) [Example 9-1, (−)-1-[(3S*,4R*)-4-(2,6-Difluoro-4-methoxyphenyl)-2-oxopyrrolidin-3-yl]-3-(p-tolyl)urea] | – | 0.86 | – | 57.0 |
| COc1cc(F)c([C@@H]2CNC(=O)[C@H]2NC(=O)Nc2ccc(Cl)cc2)c(F)c1 (single isomer, unassigned) [EXAMPLE 1-22, (−)-1-(4-chlorophenyl)-3-[(3S*,4R*)-4-(2,6-difluoro-4-methoxyphenyl)-2-oxopyrrolidin-3-yl]urea] | – | 0.11 | 93.1 | – |
| COc1ccc([C@@H]2CNC(=O)C2NC(=O)Nc2ccc(Cl)cc2)cc1 (mixture of isomers) [Example 1-53, (±)-trans-1-(4-chlorophenyl)-3-[4-(4-methoxyphenyl)-2-oxopyrrolidin-3-yl]urea] | – | 0.18 | 78.9 | – |
| CO/N=C1\NC[C@@H](c2c(F)cc(OC)cc2F)[C@@H]1NC(=O)Nc1ccc(F)cc1 (single isomer, unassigned) [EXAMPLE 32-3, (−)-1-[(3S*,4R*,Z)-4-(2,6-difluoro-4-methoxyphenyl)-2-(methoxyimino)pyrrolidin-3-yl]-3-(4-fluorophenyl)urea] | 99.1 | 0.05 | – | – |
| COc1ccc([C@@H]2CN(C)C(=O)[C@H]2NC(=O)Nc2ccc(F)cc2)cc1 (relative stereo) [EXAMPLE 1-7, 1-(4-fluorophenyl)-3-[(3S*,4R*)-4-(4-methoxyphenyl)-1-methyl-2-oxopyrrolidin-3-yl]urea] | – | 0.22 | 96.9 | – |
| COc1ccc([C@@H]2CN(C)C(=O)C2NC(=O)Nc2ccc(Cl)cc2)cc1 (mixture of isomers) [Example 1-55, (±)-trans-1-(4-chlorophenyl)-3-[4-(4-methoxyphenyl)-1-methyl-2-oxopyrrolidin-3-yl]urea] | 83.7 | 1.02 | – | – |
| O=C(Nc1ccc(F)cc1)N[C@@H]1C(=O)NC[C@H]1c1cc2c(cc1F)OCC2 (single isomer, unassigned) [EXAMPLE 1-16, (−)-1-[(3S*,4R*)-4-(6-fluoro-2,3-dihydrobenzofuran-5-yl)-2-oxopyrrolidin-3-yl]-3-(4-fluorophenyl)urea] | – | 0.24 | 95.8 | – |
| COc1ccc([C@@H]2CNC(=O)[C@H]2NC(=O)Nc2ccc(Cl)cc2)cc1 (single isomer, unassigned) [EXAMPLE 1-2, (-)-1-(4-chlorophenyl)-3-[(3S*,4R*)-4-(4-methoxyphenyl)-2-oxopyrrolidin-3-yl]urea] | – | 0.09 | 99.2 | – |
| COc1cc(F)c([C@@H]2CNC(=O)[C@H]2NC(=O)Nc2ccc(Cl)nc2)c(F)c1 (relative stereo) [Example 1-31, (−)-1-(6-chloropyridin-3-yl)-3-[(3S*,4R*)-4-(2,6-difluoro-4-methoxyphenyl)-2-oxopyrrolidin-3-yl]urea] | – | 2.67 | 69.7 | – |
